In patent publication US4640910A (Abbott Laboratories, priority 1985, dated 1987):
≈ marks a conversion by molar mass, not a printed value. Like-named read-outs stand apart in the source and are kept apart here.

Assays:
Staph. aureus ATCC 6538P = assay: Antimicrobial spectrum, agar dilution MIC; type: cell-based; conditions: Staphylococcus aureus, ATCC6538P, BHI agar, 35°-37° C., 20-24 hours
Staph. aureus CMX 686B = assay: Antimicrobial spectrum, agar dilution MIC; type: cell-based; conditions: Staphylococcus aureus, CMX686B, BHI agar, 35°-37° C., 20-24 hours
Staph. aureus A 5177 = assay: Antimicrobial spectrum, agar dilution MIC; type: cell-based; conditions: Staphylococcus aureus, A5177
Staph. epidermidis 3519 = assay: Antimicrobial spectrum, agar dilution MIC; type: cell-based; conditions: Staphylococcus epidermidis, BHI agar, 35°-37° C., 20-24 hours
[1] = test system: Staph. epidermidis 3519 RARI; assay: Antimicrobial spectrum, agar dilution MIC; type: cell-based; conditions: Staphylococcus epidermidis
Micrococcus luteus 9341 = assay: Antimicrobial spectrum, agar dilution MIC; type: cell-based; conditions: Micrococcus luteus 9341; BHI agar, 35°-37° C., 20-24 hours; read-out: MIC
Micrococcus luteus 4698 = assay: Antimicrobial spectrum, agar dilution MIC; type: cell-based; conditions: BHI agar, 35°-37° C., 20-24 hours
[2] = test system: Lactobacillus casei ATCC 7469; assay: Antimicrobial spectrum, agar dilution MIC; type: cell-based; conditions: Lacticaseibacillus casei, ATCC7469; Lactobacillus casei ATCC 7469; BHI agar, 35°-37° C., 20-24 hours; read-out: MIC
Strep. faecium ATCC 8043 = assay: Antimicrobial spectrum, agar dilution MIC; type: cell-based; conditions: Enterococcus faecium, ATCC8043, BHI agar, 35°-37° C., 20-24 hours
Strep. bovis A5169 = assay: Antimicrobial spectrum, agar dilution MIC; type: cell-based; conditions: Streptococcus equinus, BHI agar, 35°-37° C., 20-24 hours
[3] = test system: Strep. agalactiae CMX 508; assay: Antimicrobial spectrum, agar dilution MIC; type: cell-based; conditions: Streptococcus agalactiae, CMX508, BHI agar, 35°-37° C., 20-24 hours
Strep. pyogenes EES61 = assay: Antimicrobial spectrum, agar dilution MIC; type: cell-based; conditions: Streptococcus pyogenes, BHI agar, 35°-37° C., 20-24 hours
Strep. pyogenes 930 = assay: Antimicrobial spectrum, agar dilution MIC; type: cell-based; conditions: Streptococcus pyogenes, BHI agar, 35°-37° C., 20-24 hours
E. coli JUHL = assay: Antimicrobial spectrum, agar dilution MIC; type: cell-based; conditions: Escherichia coli, BHI agar, 35°-37° C., 20-24 hours
E. coli SS = assay: Antimicrobial spectrum, agar dilution MIC; type: cell-based; conditions: Escherichia coli, BHI agar, 35°-37° C., 20-24 hours
E. coli DC-2 = assay: Antimicrobial spectrum, agar dilution MIC; type: cell-based; conditions: Escherichia coli, DC2, BHI agar, 35°-37° C., 20-24 hours
E. coli H560 = assay: Antimicrobial spectrum, agar dilution MIC; type: cell-based; conditions: Escherichia coli, BHI agar, 35°-37° C., 20-24 hours
[4] = test system: Enterobact. aerogenes ATCC 13048; assay: Antimicrobial spectrum, agar dilution MIC; type: cell-based
[5] = test system: Klebsiella pneumoniae 8045; assay: Antimicrobial spectrum, agar dilution MIC; type: cell-based; conditions: BHI agar, 35°-37° C., 20-24 hours
[6] = test system: Providencia stuartii CMX 640; assay: Antimicrobial spectrum, agar dilution MIC; type: cell-based; conditions: Providencia stuartii, CMX640
Ps. aeruginosa BMH10 = assay: Antimicrobial spectrum, agar dilution MIC; type: cell-based; conditions: Pseudomonas aeruginosa, BMH10
Ps. aeruginosa A5007 = assay: Antimicrobial spectrum, agar dilution MIC; type: cell-based; conditions: Pseudomonas aeruginosa, BHI agar, 35°-37° C., 20-24 hours
Ps. aeruginosa K799/WT = assay: Antimicrobial spectrum, agar dilution MIC; type: cell-based; conditions: Pseudomonas aeruginosa, BHI agar, 35°-37° C., 20-24 hours
Ps. aeruginosa K799/61 = assay: Antimicrobial spectrum, agar dilution MIC; type: cell-based; conditions: Pseudomonas aeruginosa, BHI agar, 35°-37° C., 20-24 hours
Ps. cepacia 2961 = assay: Antimicrobial spectrum, agar dilution MIC; type: cell-based; conditions: Burkholderia cepacia, 2961
[7] = test system: Acinetobacter sp. CMX 669; assay: Antimicrobial spectrum, agar dilution MIC; type: cell-based; conditions: SP.CMX669, BHI agar, 35°-37° C., 20-24 hours
[8] = Stability and release of drug from prodrug in aqueous buffers pH 2 to 12 (dissolution apparatus, HPLC); type: physicochemical; conditions: for conversion to active drug: 37° C.
Method: (§1) Samples of 2'-trimethylsilylerythromycin A and 2'-trimethylsilyl-6-O-methylerythromycin A were dissolved in 10-50 ml dimethyl sulfoxide or acetonitrile to give a solution containing 15-75 mg/ml. An aliquot containing 75 mg of prodrug was added to aqueous buffers ranging in pH from 2 to 12 to give a final volume equal to 500 ml. The buffered mixtures were stirred at 37° C. for at least 90 minutes. A standard dissolution test apparatus (Vanderkamp 600, Van-Kel Industries, Inc., 36 Meridian Road, Edisoin, N.J. 08820) was used to provide temperature and stirring rate control.
(§2) Aliquots were taken at 15, 30, 45, 60, 90, 120, 180, 240 and 360 minutes for analysis. Each sample was mixed with an internal standard, adjusted rapidly to pH 9 with 1M tricine buffer and extracted immediately with ethyl acetate. The organic extracts were evaporated and redissolved in a solution of 3% tetrahydrofuran in heptane. Samples of these solutions were injected using an autosampler (WISP 71)B, Waters Chromatography, Division of Millipore, 34 Maple Street, Milford, Mass. 01757). The prodrugs and drugs were separated by high performance liquid chromatography, detected at 225 nm using a spectrophotometer (Spectroflow 773 Absorbence Detector, Kratos Analytical Instruments), and were quantified with a digital integrator.

[9] = Solubility of prodrug in aqueous buffers; type: physicochemical
Method: as §1, §2

Strep. pyogenes = assay: Extended mouse protection study; conditions: oral
Staph. aureus = assay: Extended mouse protection study; conditions: oral
Strep. pneumoniae = assay: Extended mouse protection study; conditions: oral
[10] = carboxymethylcellulose with milk (reduces gastric acid secretion)
[11] = phosphate buffer solution with milk (reduces gastric acid secretion)

CC[C@H]1OC(=O)[C@H](C)[C@@H](O[C@H]2C[C@@](C)(OC)[C@@H](O)[C@H](C)O2)[C@H](C)[C@@H](O[C@@H]2O[C@H](C)C[C@H](N(C)C)[C@H]2O[Si](C)(C)C)[C@](C)(OC)C[C@@H](C)C(=O)[C@H](C)[C@@H](O)[C@]1(C)O [Example 3, 2'-O-trimethylsilyl-6-O-methyl-Erythromycin A]
MIC (Staph. aureus ATCC 6538P): 0.78 µg/mL (≈ 0.951 µM) | MIC (Staph. aureus CMX 686B): 0.78 µg/mL (≈ 0.951 µM) | MIC (Staph. aureus A 5177): 3.1 µg/mL (≈ 3.78 µM) | MIC (Staph. epidermidis 3519): 0.78 µg/mL (≈ 0.951 µM) | MIC [1]: 0.39 µg/mL (≈ 0.476 µM) | MIC (Micrococcus luteus 9341): 0.1 µg/mL (≈ 0.122 µM) | MIC (Micrococcus luteus 4698): 0.39 µg/mL (≈ 0.476 µM) | MIC [2]: 0.1 µg/mL (≈ 0.122 µM) | MIC (Strep. faecium ATCC 8043): 0.2 µg/mL (≈ 0.244 µM) | MIC (Strep. bovis A5169): 0.1 µg/mL (≈ 0.122 µM) | MIC [3]: 0.1 µg/mL (≈ 0.122 µM) | MIC (Strep. pyogenes EES61): 0.05 µg/mL (≈ 0.061 µM) | MIC (Strep. pyogenes 930): 100 µg/mL (≈ 122 µM) | MIC (E. coli JUHL): 100 µg/mL (≈ 122 µM) | MIC (E. coli SS): 0.39 µg/mL (≈ 0.476 µM) | MIC (E. coli DC-2): 100 µg/mL (≈ 122 µM) | MIC (E. coli H560): 100 µg/mL (≈ 122 µM) | MIC [4]: 100 µg/mL (≈ 122 µM) | MIC [5]: 100 µg/mL (≈ 122 µM) | MIC [6]: 100 µg/mL (≈ 122 µM) | MIC (Ps. aeruginosa BMH10): 100 µg/mL (≈ 122 µM) | MIC (Ps. aeruginosa A5007): 100 µg/mL (≈ 122 µM) | MIC (Ps. aeruginosa K799/WT): 100 µg/mL (≈ 122 µM) | MIC (Ps. aeruginosa K799/61): 25 µg/mL (≈ 30.5 µM) | MIC (Ps. cepacia 2961): 100 µg/mL (≈ 122 µM) | MIC [7]: 50 µg/mL (≈ 61 µM) | conversion to active drug ([8]; acid pH): converted to the active drug 6-O-methylerythromycin A | release rates ([8]; pH 3 and 4, 37° C.): both dissolution-rate limited release and also release from the initially dissolved material | release rates ([8]; pH 5, 6 and 7, 37° C.): dissolution-rate limited release | decomposition ([8]; pH 7, owing to solubility properties): severely restrict its decomposition | conversion to active drug ([8]; pH 8 or above): Very little or no conversion | solubility ([9]; aqueous buffer, pH 2, completely soluble, read-out: solubility): ≥ 150 µg/mL | solubility ([9]; neutral or alkaline pH): little or no solubility | ED50 (Strep. pyogenes; [10]): 7.8 mg/kg/day | ED50 (Strep. pyogenes; phosphate buffer solution): 12.7 mg/kg/day | ED50 (Strep. pyogenes; [11]): 14.1 mg/kg/day | ED50 (Staph. aureus; carboxymethylcellulose): 34.9 mg/kg/day | ED50 (Staph. aureus; phosphate buffer solution): 157.9 mg/kg/day | ED50 (Strep. pneumoniae; carboxymethylcellulose): 7.9 mg/kg/day | ED50 (Strep. pneumoniae; [10]): 7.3 mg/kg/day | ED50 (Strep. pneumoniae; phosphate buffer solution): 9.3 mg/kg/day | ED50 (Strep. pneumoniae; [11]): 10.9 mg/kg/day
